Measured values from ChEMBL document CHEMBL3745645, “Synthesis, in vitro antitumor activity, dihydrofolate reductase inhibition, DNA intercalation and structure-activity relationship studies of 1,3,5-triazine analogues” (Bioorg Med Chem Lett, 2016).
Active and inactive are the calls of the source. No cut-off for these calls is given here.

Experiments:
Type in all cases: functional
[1] = Cytotoxicity against human Caki1 cells at 10 uM after 48 hrs by SRB assay; conditions: CAKI-1, 48 h, read-out: GI
[2] = Cytotoxicity against human RXF393 cells at 10 uM after 48 hrs by SRB assay; conditions: RXF 393, 48 h, read-out: GI
[3] = tested on: SN12C; assay: Cytotoxicity against human SN12C cells at 10 uM after 48 hrs by SRB assay; conditions: read-out: GI
[4] = Cytotoxicity against human TK10 cells at 10 uM after 48 hrs by SRB assay; conditions: TK-10, 48 h, read-out: GI
[5] = Cytotoxicity against human UO31 cells at 10 uM after 48 hrs by SRB assay; conditions: UO-31, 48 h, read-out: GI
[6] = Cytotoxicity against human PC3 cells at 10 uM after 48 hrs by SRB assay; conditions: PC-3, 48 h, read-out: GI
[7] = tested on: DU-145; assay: Cytotoxicity against human DU145 cells at 10 uM after 48 hrs by SRB assay
[8] = tested on: MCF7; assay: Cytotoxicity against human MCF7 cells at 10 uM after 48 hrs by SRB assay; conditions: MCF7, 48 h, read-out: GI
[9] = tested on: MDA-MB-231; assay: Cytotoxicity against human MDA-MB-231 cells at 10 uM after 48 hrs by SRB assay
[10] = Cytotoxicity against human Hs 578T cells at 10 uM after 48 hrs by SRB assay; conditions: read-out: GI
[11] = Cytotoxicity against human BT549 cells at 10 uM after 48 hrs by SRB assay; conditions: BT-549, 48 h, read-out: GI
[12] = tested on: T47D; assay: Cytotoxicity against human T47D cells at 10 uM after 48 hrs by SRB assay; conditions: read-out: GI
[13] = tested on: MDA-MB-468; assay: Cytotoxicity against human MDA-MB-468 cells at 10 uM after 48 hrs by SRB assay; conditions: MDA-MB-468, 48 h, read-out: GI
[14] = tested on: CCRF-CEM; assay: Cytotoxicity against human CCRF-CEM cells at 10 uM after 48 hrs by SRB assay; conditions: read-out: GI
[15] = tested on: K562; assay: Cytotoxicity against human K562 cells at 10 uM after 48 hrs by SRB assay; conditions: K562, 48 h, read-out: GI
[16] = Cytotoxicity against human MOLT4 cells at 10 uM after 48 hrs by SRB assay; conditions: MOLT-4, 48 h, read-out: GI
[17] = Cytotoxicity against human RPMI8226 cells at 10 uM after 48 hrs by SRB assay; conditions: RPMI-8226, 48 h, read-out: GI
[18] = tested on: SR; assay: Cytotoxicity against human SR cells at 10 uM after 48 hrs by SRB assay; conditions: read-out: GI
[19] = tested on: A549; assay: Cytotoxicity against human A549 cells at 10 uM after 48 hrs by SRB assay; conditions: A549, 48 h, read-out: GI
[20] = tested on: HOP-62; assay: Cytotoxicity against human HOP62 cells at 10 uM after 48 hrs by SRB assay
[21] = Cytotoxicity against human HOP92 cells at 10 uM after 48 hrs by SRB assay; conditions: HOP-92, 48 h, read-out: GI
[22] = tested on: NCI-H226; assay: Cytotoxicity against human NCI-H226 cells at 10 uM after 48 hrs by SRB assay; conditions: NCI-H226, 48 h, read-out: GI
[23] = tested on: NCI-H23; assay: Cytotoxicity against human NCI-H23 cells at 10 uM after 48 hrs by SRB assay; conditions: NCI-H23, 48 h, read-out: GI
[24] = tested on: NCI-H322M; assay: Cytotoxicity against human NCI-H322M cells at 10 uM after 48 hrs by SRB assay
[25] = tested on: NCI-H460; assay: Cytotoxicity against human NCI-H460 cells at 10 uM after 48 hrs by SRB assay; conditions: NCI-H460, 48 h, read-out: GI
[26] = tested on: NCI-H522; assay: Cytotoxicity against human NCI-H522 cells at 10 uM after 48 hrs by SRB assay; conditions: NCI-H522, 48 h, read-out: GI
[27] = Cytotoxicity against human COLO205 cells at 10 uM after 48 hrs by SRB assay; conditions: COLO 205, 48 h, read-out: GI
[28] = tested on: HCC 2998; assay: Cytotoxicity against human HCC2998 cells at 10 uM after 48 hrs by SRB assay
[29] = Cytotoxicity against human HCT116 cells at 10 uM after 48 hrs by SRB assay; conditions: HCT-116, 48 h, read-out: GI
[30] = Cytotoxicity against human HCT15 cells at 10 uM after 48 hrs by SRB assay; conditions: HCT-15, 48 h, read-out: GI
[31] = tested on: HT-29; assay: Cytotoxicity against human HT-29 cells at 10 uM after 48 hrs by SRB assay; conditions: HT-29, 48 h, read-out: GI
[32] = tested on: KM12; assay: Cytotoxicity against human KM12 cells at 10 uM after 48 hrs by SRB assay; conditions: KM12, 48 h, read-out: GI
[33] = Cytotoxicity against human SW620 cells at 10 uM after 48 hrs by SRB assay; conditions: SW-620, 48 h, read-out: GI
[34] = Cytotoxicity against human SF268 cells at 10 uM after 48 hrs by SRB assay; conditions: SF-268, 48 h, read-out: GI
[35] = Cytotoxicity against human SF295 cells at 10 uM after 48 hrs by SRB assay; conditions: SF-295, 48 h, read-out: GI
[36] = Cytotoxicity against human SF539 cells at 10 uM after 48 hrs by SRB assay; conditions: SF-539, 48 h, read-out: GI
[37] = Cytotoxicity against human SNB19 cells at 10 uM after 48 hrs by SRB assay; conditions: SNB-19, 48 h, read-out: GI
[38] = Cytotoxicity against human SNB75 cells at 10 uM after 48 hrs by SRB assay; conditions: SNB-75, 48 h, read-out: GI
[39] = tested on: U-251; assay: Cytotoxicity against human U251 cells at 10 uM after 48 hrs by SRB assay; conditions: U-251, 48 h, read-out: GI
[40] = tested on: LOX IMVI; assay: Cytotoxicity against human LOXIMVI cells at 10 uM after 48 hrs by SRB assay
[41] = tested on: Malme-3M; assay: Cytotoxicity against human MALME-3M cells at 10 uM after 48 hrs by SRB assay
[42] = tested on: M14; assay: Cytotoxicity against human M14 cells at 10 uM after 48 hrs by SRB assay; conditions: M14, 48 h, read-out: GI
[43] = tested on: MDA-MB-435; assay: Cytotoxicity against human MDA-MB-435 cells at 10 uM after 48 hrs by SRB assay; conditions: MDA-MB-435, 48 h, read-out: GI
[44] = tested on: SK-MEL-28; assay: Cytotoxicity against human SK-MEL-28 cells at 10 uM after 48 hrs by SRB assay; conditions: SK-MEL-28, 48 h, read-out: GI
[45] = tested on: SK-MEL-5; assay: Cytotoxicity against human SK-MEL-5 cells at 10 uM after 48 hrs by SRB assay; conditions: SK-MEL-5, 48 h, read-out: GI
[46] = tested on: UACC-257; assay: Cytotoxicity against human UACC257 cells at 10 uM after 48 hrs by SRB assay
[47] = Cytotoxicity against human UACC62 cells at 10 uM after 48 hrs by SRB assay; conditions: UACC-62, 48 h, read-out: GI
[48] = Cytotoxicity against human OVCAR3 cells at 10 uM after 48 hrs by SRB assay; conditions: OVCAR-3, 48 h, read-out: GI
[49] = tested on: OVCAR-4; assay: Cytotoxicity against human OVCAR4 cells at 10 uM after 48 hrs by SRB assay
[50] = tested on: OVCAR-5; assay: Cytotoxicity against human OVCAR5 cells at 10 uM after 48 hrs by SRB assay
[51] = Cytotoxicity against human OVCAR8 cells at 10 uM after 48 hrs by SRB assay; conditions: OVCAR-8, 48 h, read-out: GI
[52] = Cytotoxicity against human SKOV3 cells at 10 uM after 48 hrs by SRB assay; conditions: SK-OV-3, 48 h, read-out: GI
[53] = tested on: 786-0; assay: Cytotoxicity against human 786-0 cells at 10 uM after 48 hrs by SRB assay; conditions: 786-0, 48 h, read-out: GI
[54] = tested on: A498; assay: Cytotoxicity against human A498 cells at 10 uM after 48 hrs by SRB assay; conditions: A498, 48 h, read-out: GI
[55] = tested on: ACHN; assay: Cytotoxicity against human ACHN cells at 10 uM after 48 hrs by SRB assay; conditions: read-out: GI

Cc1nc2ccc(Nc3nc(Nc4ccc(F)cc4)nc(N4CCCCC4)n3)cc2n1Cc1ccccc1
inhibition of growth at 10 µM [1]: 1.51% | inhibition of growth at 10 µM [2]: 13.8% | inhibition of growth at 10 µM [3]: 3.75% | inhibition of growth at 10 µM [4]: 7.88% | inhibition of growth at 10 µM [5]: 15.7% | inhibition of growth at 10 µM [6]: 21.3% | growth inhibition (GI) [7]: inactive | inhibition of growth at 10 µM [8]: 38.8% | growth inhibition (GI) [9]: inactive | inhibition of growth at 10 µM [10]: 0.58% | inhibition of growth at 10 µM [11]: 5.37% | inhibition of growth at 10 µM [12]: 34.7% | inhibition of growth at 10 µM [13]: 17.2% | inhibition of growth at 10 µM [14]: 20.5% | inhibition of growth at 10 µM [15]: 26.5% | inhibition of growth at 10 µM [16]: 30.7% | inhibition of growth at 10 µM [17]: 25.2% | inhibition of growth at 10 µM [18]: 50.7% | inhibition of growth at 10 µM [19]: 29.2% | growth inhibition (GI) [20]: inactive | inhibition of growth at 10 µM [21]: 24.7% | inhibition of growth at 10 µM [22]: 12.3% | inhibition of growth at 10 µM [23]: 5.43% | growth inhibition (GI) [24]: inactive | inhibition of growth at 10 µM [25]: 17.7% | inhibition of growth at 10 µM [26]: 30.1% | inhibition of growth at 10 µM [27]: 2.32% | growth inhibition (GI) [28]: inactive | inhibition of growth at 10 µM [29]: 26.5% | inhibition of growth at 10 µM [30]: 16.6% | inhibition of growth at 10 µM [31]: 28.9% | inhibition of growth at 10 µM [32]: 8.36% | inhibition of growth at 10 µM [33]: 5.34% | inhibition of growth at 10 µM [34]: 4.31% | inhibition of growth at 10 µM [35]: 9.64% | inhibition of growth at 10 µM [36]: 2.48% | inhibition of growth at 10 µM [37]: 17.5% | inhibition of growth at 10 µM [38]: 4.31% | inhibition of growth at 10 µM [39]: 21.5% | growth inhibition (GI) [40]: inactive | growth inhibition (GI) [41]: inactive | inhibition of growth at 10 µM [42]: 7.86% | inhibition of growth at 10 µM [43]: 3.66% | inhibition of growth at 10 µM [44]: 3.66% | inhibition of growth at 10 µM [45]: 22.9% | growth inhibition (GI) [46]: inactive | inhibition of growth at 10 µM [47]: 9.98% | inhibition of growth at 10 µM [48]: 0.84% | growth inhibition (GI) [49]: inactive | growth inhibition (GI) [50]: inactive | inhibition of growth at 10 µM [51]: 6.9% | inhibition of growth at 10 µM [52]: 2.27% | inhibition of growth at 10 µM [53]: 11.8% | inhibition of growth at 10 µM [54]: 24.9% | inhibition of growth at 10 µM [55]: 3.6%
